Patent US20110123510A1, “Methods of Affecting Biological Function Through Circadian Clock Feedback Cycle by NAMPT-Mediated NAD+ Biosynthesis” (WASHINGTON UNIVERSITY, priority 2009, published 2011)

Tests used:
Per2 RNA oscillation = Per2 RNA oscillation in primary hepatocytes following serum shock; type: cell-based, mice; details: primary hepatocytes after serum shock, 200 nM FK866 added at t=2 (FIG. 3B); vehicle 2.2 day
Procedure: (§1) Quantitative Real-Time PCR. Total RNA was extracted from frozen tissue with Tri Reagent (Molecular Research Center, Inc.). cDNA was synthesized using the High Capacity cDNA Reverse Transcription kit (Applied Biosystems). Real-time PCR was performed and analyzed using an Applied Biosystems 7900HT Fast Real-Time PCR System (Applied Biosystems). PCR conditions were: 10 min at 95° C., then 35 cycles of 10 s at 95° C., 15 s at 60° C. Relative expression levels (normalized to Gapdh) were determined using the comparative CT method.
(§2) Primary Hepatocyte Isolation and Adenoviral Infection.
Synchronization of Primary Hepatocytes by Serum Shock. Hepatocytes were synchronized by changing to media containing 50% horse serum (t=0) for 2 hrs and then maintaining cells in media containing 0.5% FBS (A. Balsalobre, F. Damiola, U. Schibler, Cell 93, 929 (1998)). For FK866 application, 200 nM FK866 was added to the culture at t=2. RNA samples were collected at the indicated time points, and the expression of clock genes was examined by quantitative real-time PCR as described above. Damping rate was assessed as the decay rate of the oscillations of averaged Per2 RNA abundance assuming exponential decay.

[1] = system: NAMPT-mediated NAD+ biosynthesis; details: primary hepatocytes, 200 nM FK866 for 24 hours (FIG. 2A)
Procedure: NAD^+Measurements. NAD^+ levels were measured using HPLC with Waters 515 pumps and a 2487 detector with a Supelco LC-18-T column (15 cm×4.6 cm). Briefly, frozen liver tissues or cultured cells were extracted in 1M perchloric acid and neutralized in 3M K2CO3 on ice. After centrifugation, the supernatant was mixed with Buffer A (50 mM K2PO4/KHPO4, pH 7.0) and loaded on to the column. The HPLC was run at a flow rate of 1 ml/min with 100% Buffer A from 0-5 min, a linear gradient to 95% Buffer N5% Buffer B (100% methanol) from 5-6 min, 95% Buffer N5% Buffer B from 6-11 min, a linear gradient to 85% Buffer N15% Buffer B from 11-13 min, 85% Buffer A/15% Buffer B from 13-23 min, and a linear gradient to 100% Buffer A from 23-24 min. NAD^+ eluted as a sharp peak at 15 min and was quantitated based on the peak area compared to a standard curve and normalized to tissue weight of frozen liver tissues or to protein content of cultured cells.

[2] = system: CLOCK:BMAL1-driven transcription of Per2:luciferase; test: Per2:luciferase transcriptional reporter assay in HEK293 cells; type: cell-based
Procedure: Luciferase Assays. HEK293 and HepG2 cells were transiently transfected with Clock (100 ng), Bmal1 (100 ng), firefly luciferase reporter (100 ng), and renilla luciferase reporter (control for transfection efficiency) (4 ng) using Lipofectamine 2000. Increasing doses of Sirt1 (200-800 ng), resveratrol (20, 50, 100 uM), nicotinamide (1, 5, 10 mM), Ex-527 (0.1 or 1.0 uM), or FK866 (10 nM) were added as indicated. 48 hrs following transfection, cells were lysed and luciferase activity monitored using the Dual-Luciferase® Reporter Assay System (Promega). Firefly luciferase values were normalized to renilla luciferase values, and a minimum of 3 independent experiments was performed in triplicate for each assay.

SIRT1 target genes = test: mRNA expression of SIRT1 target genes in primary hepatocytes (quantitative real-time PCR); type: cell-based, mice; details: 200 nM FK866 for 24 hours (FIG. 2B)
Procedure: as §1, §2

Structure (SMILES): O=C(/C=C/c1cccnc1)NCCCCC1CCN(C(=O)c2ccccc2)CC1 [FK866]
- damping rate of Per2 oscillation (Per2 RNA oscillation): 5.3 days
- NAD+ biosynthesis (NAD+ levels) [1]: significantly inhibited
- CLOCK:BMAL1-driven transcription of the Per2:luciferase reporter ([2]; HEK293 cells, 10 nM FK866 for 24 or 48 hours (FIG. 2C)): significant increase
- SIRT1-dependent suppression of CLOCK:BMAL1-mediated transcription ([2]; Sirt1 (800 ng) and 10 nM FK866 for 48 hours (FIG. 2E)): abrogated
- reduction in mRNA expression level of G6 Pase (SIRT1 target genes): ~30%
- reduction in mRNA expression level of Pepck (SIRT1 target genes): ~30%

Structure (SMILES): NC(=O)C1CCCc2c1[nH]c1ccc(Cl)cc21 (stereo not drawn) [EX-527]
- Per2:luciferase transcription ([2]; Ex-527 0.1 and 1.0 uM (FIG. 6C)): showed a similar trend

Structure (SMILES): Oc1ccc(C=Cc2cc(O)cc(O)c2)cc1 [resveratrol]
- Per2:luciferase transcription ([2]; increasing doses of resveratrol 20, 50 and 100 uM (FIG. 6A)): inhibited

Structure (SMILES): NC(=O)c1cccnc1 [nicotinamide, 3-pyridinecarboxamide]
- Per2:luciferase transcription ([2]; increasing doses of nicotinamide 1, 5 and 10 mM (FIG. 6B)): activated
